Values joined by “and” are separate entries in the source; they are usually repeats but may differ in a detail not shown here. Equal entries are not always repeated. Inconclusive results and toxic doses are left out.
Test system: CD2F1 mice, L1210 leukemia ip, survival T/C
Assay: NCI In Vivo Anticancer Drug Screen. Data for tumor model L1210 Leukemia (intraperitoneal) in CD2F1 (CDF1) mice
Conditions: higher = longer survival
Method in brief: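 Tumor-bearing mice (transplanted tumor) were split into treated and vehicle control groups, and the measured endpoint of each treated group was divided by that of its vehicle controls.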

[1] = endpoint: mean survival time, dose: 100.0 mg/kg/injection, schedule: Q04DX003 (ip), vehicle: saline
[2] = endpoint: mean survival time, dose: 200.0 mg/kg/injection, schedule: Q04DX003 (ip), vehicle: saline
[3] = endpoint: mean survival time, dose: 400.0 mg/kg/injection, schedule: Q04DX003 (ip), vehicle: saline
[4] = endpoint: mean survival time, dose: 100.0 mg/kg/injection, schedule: Q04DX003 (ip), vehicle: saline with Tween-80
[5] = endpoint: mean survival time, dose: 200.0 mg/kg/injection, schedule: Q04DX003 (ip), vehicle: saline with Tween-80
[6] = endpoint: mean survival time, dose: 400.0 mg/kg/injection, schedule: Q04DX003 (ip), vehicle: saline with Tween-80
[7] = endpoint: mean survival time, dose: 50.0 mg/kg/injection, schedule: Q04DX002 (ip), vehicle: saline with Tween-80
[8] = endpoint: mean survival time, dose: 100.0 mg/kg/injection, schedule: Q04DX002 (ip), vehicle: saline with Tween-80
[9] = endpoint: mean survival time, dose: 200.0 mg/kg/injection, schedule: Q04DX002 (ip), vehicle: saline with Tween-80
[10] = endpoint: mean survival time, dose: 400.0 mg/kg/injection, schedule: Q04DX002 (ip), vehicle: saline with Tween-80

O=C(O)CCCc1ccc(Cl)cc1
T/C [1]: 106 % of control | T/C [2]: 106 % of control | T/C [3]: 98 % of control

O.O=C(O)C(Cc1ccc(O)cc1)N=Cc1c(O)cncc1COP(=O)(O)O.[Cu] (stereo not given)
T/C (endpoint: mean survival time, dose: 12.5 mg/kg/injection, schedule: Q01DX001 (ip), vehicle: saline with Tween-80): 95 % of control | T/C (endpoint: mean survival time, dose: 25.0 mg/kg/injection, schedule: Q01DX001 (ip), vehicle: saline with Tween-80): 103 % of control | T/C (endpoint: mean survival time, dose: 50.0 mg/kg/injection, schedule: Q01DX001 (ip), vehicle: saline with Tween-80): 98 % of control

Cc1ccc(C2(C(=O)O)CC2)cc1
T/C [4]: 98 % of control | T/C [5]: 98 % of control | T/C [6]: 96 % of control

CCCCCc1cccc(CC(=O)OCC)n1
T/C [1]: 89 % of control | T/C [2]: 94 % of control | T/C [3]: 94 % of control

CC1(C(=O)O)CC2CCC1CC2 (stereo not given)
T/C [7]: 96 % of control | T/C [8]: 107 % of control | T/C [9]: 100 % of control | T/C [10]: 96 % of control

O=C(c1ccccc1)N(CCCCl)C(=O)N(CCCCl)C(=O)c1ccccc1
T/C [4]: 105 % of control | T/C [5]: 100 % of control | T/C [6]: 108 % of control

N.N.N.N.O=C([O-])C([O-])C(O)C(=O)[O-].O=[N+]([O-])[O-].[Co+3] (stereo not given)
T/C (endpoint: mean survival time, dose: 25.0 mg/kg/injection, schedule: Q04DX002 (ip), vehicle: saline with Tween-80): 104 % of control | T/C [7]: 110 % of control | T/C [8]: 110 % of control

C=C(OC)C(Nc1cc(OC)c(OC)cc1C(=O)OC1CC(O[C@@H]2C(=O)C(NC(=O)OC)=C3/C(=C\CSSSC)[C@]2(O)C#C/C=C\C#C[C@@H]3OC2OC(C)C(NOC3CC(O)C(SC)C(C)O3)C(O)C2OC2CC(OC)C(NCCC)CO2)OC(C)C1O)OC (stereo not given in full)
T/C (endpoint: median survival time, dose: 0.1 micrograms/kg/injection, schedule: Q01DX005 (ip), vehicle: methylcellulose (MC)): 117 % of control | T/C (endpoint: median survival time, dose: 0.2 micrograms/kg/injection, schedule: Q01DX005 (ip), vehicle: methylcellulose (MC)): 117 % of control | T/C (endpoint: median survival time, dose: 0.2 micrograms/kg/injection, schedule: Q04DX003 (ip), vehicle: methylcellulose (MC)): 109 % of control | T/C (endpoint: median survival time, dose: 0.3 micrograms/kg/injection, schedule: Q01DX005 (ip), vehicle: saline + alcohol): 180 % of control | T/C (endpoint: median survival time, dose: 0.32 micrograms/kg/injection, schedule: Q01DX005 (ip), vehicle: saline + alcohol): 119 % of control | T/C (endpoint: median survival time, dose: 0.4 micrograms/kg/injection, schedule: Q01DX005 (ip), vehicle: methylcellulose (MC)): 118 % of control | T/C (endpoint: median survival time, dose: 0.4 micrograms/kg/injection, schedule: Q04DX003 (ip), vehicle: methylcellulose (MC)): 118 % of control | T/C (endpoint: median survival time, dose: 0.5 micrograms/kg/injection, schedule: Q01DX005 (ip), vehicle: saline + alcohol): 180 % of control | T/C (endpoint: median survival time, dose: 0.64 micrograms/kg/injection, schedule: Q01DX005 (ip), vehicle: saline + alcohol): 151 % of control | T/C (endpoint: median survival time, dose: 0.8 micrograms/kg/injection, schedule: Q01DX001 (ip), vehicle: methylcellulose (MC)): 113 % of control | T/C (endpoint: median survival time, dose: 0.8 micrograms/kg/injection, schedule: Q01DX005 (ip), vehicle: saline + alcohol): 170 % of control | T/C (endpoint: median survival time, dose: 0.8 micrograms/kg/injection, schedule: Q04DX003 (ip), vehicle: methylcellulose (MC)): 122 % of control | T/C (endpoint: median survival time, dose: 1.28 micrograms/kg/injection, schedule: Q01DX005 (ip), vehicle: saline + alcohol): 170 % of control | T/C (endpoint: median survival time, dose: 1.3 micrograms/kg/injection, schedule: Q01DX005 (ip), vehicle: saline + alcohol): 180 % of control | T/C (endpoint: median survival time, dose: 2.1 micrograms/kg/injection, schedule: Q01DX005 (ip), vehicle: saline + alcohol): 180 % of control | T/C (endpoint: median survival time, dose: 3.2 micrograms/kg/injection, schedule: Q01DX005 (ip), vehicle: methylcellulose (MC)): 162 % of control | T/C (endpoint: median survival time, dose: 6.4 micrograms/kg/injection, schedule: Q01DX001 (ip), vehicle: methylcellulose (MC)): 150 % of control | T/C (endpoint: median survival time, dose: 6.4 micrograms/kg/injection, schedule: Q01DX005 (ip), vehicle: methylcellulose (MC)): 94 % of control | T/C (endpoint: median survival time, dose: 6.4 micrograms/kg/injection, schedule: Q04DX003 (ip), vehicle: methylcellulose (MC)): 152 % of control | T/C (endpoint: median survival time, dose: 12.8 micrograms/kg/injection, schedule: Q01DX001 (ip), vehicle: methylcellulose (MC)): 150 % of control | T/C (endpoint: median survival time, dose: 25.6 micrograms/kg/injection, schedule: Q01DX001 (ip), vehicle: methylcellulose (MC)): 104 % of control

COc1cc([N+](=O)[O-])ccc1NC(=O)NCCc1ccccc1
T/C (endpoint: mean survival time, dose: 100.0 mg/kg/injection, schedule: Q01DX001 (ip), vehicle: saline with Tween-80): 86 % of control and 97 % of control | T/C (endpoint: mean survival time, dose: 100.0 mg/kg/injection, schedule: Q01DX009 (ip), vehicle: saline with Tween-80): 90 % of control and 91 % of control | T/C [8]: 95 % of control | T/C [4]: 89 % of control | T/C (endpoint: mean survival time, dose: 200.0 mg/kg/injection, schedule: Q01DX001 (ip), vehicle: saline with Tween-80): 86 % of control and 91 % of control | T/C (endpoint: mean survival time, dose: 200.0 mg/kg/injection, schedule: Q01DX009 (ip), vehicle: saline with Tween-80): 91 % of control and 103 % of control | T/C [9]: 95 % of control | T/C [5]: 91 % of control | T/C (endpoint: mean survival time, dose: 400.0 mg/kg/injection, schedule: Q01DX001 (ip), vehicle: saline with Tween-80): 91 % of control | T/C (endpoint: mean survival time, dose: 400.0 mg/kg/injection, schedule: Q01DX009 (ip), vehicle: saline with Tween-80): 90 % of control and 91 % of control | T/C [10]: 90 % of control | T/C [6]: 89 % of control

SCC1=NCCN1
T/C (endpoint: mean survival time, dose: 25.0 mg/kg/injection, schedule: Q04DX002 (ip), vehicle: saline): 103 % of control | T/C (endpoint: mean survival time, dose: 50.0 mg/kg/injection, schedule: Q04DX002 (ip), vehicle: saline): 98 % of control | T/C (endpoint: mean survival time, dose: 100.0 mg/kg/injection, schedule: Q04DX002 (ip), vehicle: saline): 93 % of control and 95 % of control

O=C1/C(=C/c2ccc(Cl)c(Cl)c2)CCC/C1=C\c1ccc(Cl)c(Cl)c1
T/C (endpoint: mean survival time, dose: 100.0 mg/kg/injection, schedule: Q04DX003 (ip), vehicle: Klucel (hydroxypropylcellulose) (HPC)): 98 % of control | T/C (endpoint: mean survival time, dose: 200.0 mg/kg/injection, schedule: Q04DX003 (ip), vehicle: Klucel (hydroxypropylcellulose) (HPC)): 100 % of control | T/C (endpoint: mean survival time, dose: 400.0 mg/kg/injection, schedule: Q04DX003 (ip), vehicle: Klucel (hydroxypropylcellulose) (HPC)): 98 % of control

CCCNC1=C(C)C(=O)C2=C(C1=O)[C@@H](COC(N)=O)[C@]1(O)[C@H]3[C@@H](CN21)N3C (stereo not given in full)
T/C (endpoint: mean survival time, dose: 1.5 mg/kg/injection, schedule: Q01DX001 (ip), vehicle: water): 98 % of control and 103 % of control | T/C (endpoint: mean survival time, dose: 3.0 mg/kg/injection, schedule: Q01DX001 (ip), vehicle: water): 97 % of control and 103 % of control | T/C (endpoint: mean survival time, dose: 6.0 mg/kg/injection, schedule: Q01DX001 (ip), vehicle: water): 98 % of control and 101 % of control | T/C (endpoint: mean survival time, dose: 12.0 mg/kg/injection, schedule: Q01DX001 (ip), vehicle: water): 98 % of control and 103 % of control | T/C (endpoint: mean survival time, dose: 24.0 mg/kg/injection, schedule: Q01DX001 (ip), vehicle: water): 97 % of control and 101 % of control | T/C (endpoint: mean survival time, dose: 50.0 mg/kg/injection, schedule: Q01DX001 (ip), vehicle: distilled water + Tween-80): 100 % of control | T/C (endpoint: mean survival time, dose: 100.0 mg/kg/injection, schedule: Q01DX001 (ip), vehicle: distilled water + Tween-80): 108 % of control

Cc1ccccc1OS(=O)(=O)c1cccc([N+](=O)[O-])c1
T/C [4]: 103 % of control | T/C [5]: 100 % of control | T/C [6]: 100 % of control

Cc1cccc(NNC(=S)Nc2ccccc2)c1
T/C [1]: 94 % of control | T/C [2]: 100 % of control | T/C [3]: 100 % of control

COc1cccc(NC(=S)NC(Cc2ccccc2)c2ccccc2)c1 (stereo not given)
T/C (endpoint: mean survival time, dose: 100.0 mg/kg/injection, schedule: Q01DX001 (ip), vehicle: Klucel (hydroxypropylcellulose) (HPC)): 101 % of control | T/C (endpoint: mean survival time, dose: 200.0 mg/kg/injection, schedule: Q01DX001 (ip), vehicle: Klucel (hydroxypropylcellulose) (HPC)): 91 % of control | T/C (endpoint: mean survival time, dose: 400.0 mg/kg/injection, schedule: Q01DX001 (ip), vehicle: Klucel (hydroxypropylcellulose) (HPC)): 96 % of control

C[CH2][Sn]1([CH2]C)[O]C2C(CO)OC(n3cnc4c(=O)[nH]c(N)nc43)C2[O]1 (stereo not given)
T/C (endpoint: mean survival time, dose: 0.78 mg/kg/injection, schedule: Q01DX005 (ip), vehicle: other): 100 % of control | T/C (endpoint: mean survival time, dose: 1.56 mg/kg/injection, schedule: Q01DX005 (ip), vehicle: other): 100 % of control | T/C (endpoint: mean survival time, dose: 3.13 mg/kg/injection, schedule: Q01DX005 (ip), vehicle: other): 104 % of control | T/C (endpoint: mean survival time, dose: 6.25 mg/kg/injection, schedule: Q01DX005 (ip), vehicle: other): 102 % of control | T/C (endpoint: mean survival time, dose: 12.5 mg/kg/injection, schedule: Q01DX005 (ip), vehicle: other): 96 % of control and 110 % of control

COC(=O)c1c(C)c(-c2ccccc2)c(-c2ccccc2)c(C)c1C(=O)OC
T/C [8]: 98 % of control | T/C [9]: 95 % of control | T/C [10]: 95 % of control

C1CC[N-]CC1.C1CC[N-]CC1.[Cl][Pt+2]([Cl])([Cl])[Cl]
T/C [4]: 97 % of control | T/C [5]: 92 % of control | T/C [6]: 93 % of control

CC12CCC(=O)C=C1CCC1C2CCC2(C)C(C(=O)O)CCC12 (stereo not given)
T/C [4]: 102 % of control | T/C [5]: 96 % of control
